Experimental data as given in ChEMBL document CHEMBL1833851, “Design, synthesis and X-ray crystallographic study of new nonsecosteroidal vitamin D receptor ligands” (Bioorg Med Chem Lett, 2011).

Biological target: T1, Vitamin D3 receptor (Homo sapiens, UniProt P11473)
T1 sequence (P11473 whole entry): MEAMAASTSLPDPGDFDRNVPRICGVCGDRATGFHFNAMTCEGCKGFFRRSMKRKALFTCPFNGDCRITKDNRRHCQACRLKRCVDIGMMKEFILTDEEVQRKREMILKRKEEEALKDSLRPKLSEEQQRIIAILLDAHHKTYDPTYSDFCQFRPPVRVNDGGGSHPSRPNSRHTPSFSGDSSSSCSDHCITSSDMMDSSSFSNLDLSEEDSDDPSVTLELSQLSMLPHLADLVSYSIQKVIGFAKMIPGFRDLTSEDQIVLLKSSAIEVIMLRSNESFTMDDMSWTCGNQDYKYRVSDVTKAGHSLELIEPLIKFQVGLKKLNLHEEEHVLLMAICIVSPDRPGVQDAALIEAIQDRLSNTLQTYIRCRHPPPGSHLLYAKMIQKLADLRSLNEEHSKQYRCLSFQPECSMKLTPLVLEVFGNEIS
Assay: Activity at human VDR expressed in human HOS cells transfected with pGL3-hOc, pCDNA-hVDR and phRL-TK assessed as assessed as transcriptional activation measured 24 hrs post […] by luciferase reporter gene assay
Assay type: cell-based

Row | SMILES | EC50
1 | CCC(CC)(c1ccc(OC[C@H](O)C(C)(C)C)c(C)c1)c1ccc(OC(CCO)CCO)c(C)c1 | 19.4 nM
2 | CCC(CC)(c1ccc(OCC(CO)CO)c(C)c1)c1ccc(OC[C@H](O)C(C)(C)C)c(C)c1 | 1.11 nM
3 | CCC(CC)(c1ccc(OC[C@H](O)C(C)(C)C)c(C)c1)c1ccc(O[C@@H](CO)[C@@H](O)CO)c(C)c1 | 0.92 nM
4 | CCC(CC)(c1ccc(OC[C@H](O)C(C)(C)C)c(C)c1)c1ccc(O[C@H](CO)[C@H](O)CO)c(C)c1 | 1.25 nM
5 | CCC(CC)(c1ccc(OC[C@H](O)C(C)(C)C)c(C)c1)c1ccc(O[C@@H](CO)CCO)c(C)c1 | 0.06 nM
6 | CCC(CC)(c1ccc(OC[C@H](O)C(C)(C)C)c(C)c1)c1ccc(O[C@H](CO)CCO)c(C)c1 | 1.29 nM
